In PubChem BioAssay (NCI) one finds TGI and GI50 data, which are given here for ten compounds.

Where “and” joins values, the source holds several entries; their conditions need not be identical. Identical values can stand only once.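 Exposure lasted 48 hours, with cells grown in 96-well plates and compounds tested at five concentrations. At the GI50, growth is halved. At the TGI there is no net growth.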

What all share (assay): NCI-60 cell line screen, 48 h
The subject of assay [1] is UACC-62 melanoma.
Assay [2] has as its system HCC-2998 colon.
For assay [3], the system named is ACHN renal.
The subject of assay [4] is NCI-H226 lung.
Assay [5] deals with SK-MEL-5 melanoma.
The subject of assay [6] is RXF 393 renal.
Assay [7] concerns NCI-H522 lung.
Assay [8] deals with UO-31 renal.
Assay [9] relates to NCI-H23 lung.
Assay [10] deals with SN12C renal.

As for `N=C(N)n1cc(/C=N/N=C(N)N)cn1`, the TGI in [1], in [2], in assay [3], in [4], in [5] and in assay [6] was > 100 µM each time. Besides, the TGI in assay [7], in [8], in assay [9] and in assay [10] was > 100 µM in each case.

Regarding `CC(C)(C)C1=NO[C@H]2[C@@H](NC(=O)c3ccccc3)CC[C@@H]12`, the TGI in [1], in assay [2], in assay [3], in [4], in assay [5] and in assay [6] was > 100 µM each time. The TGI in [7], in assay [8], in assay [9] and in assay [10] was > 100 µM in each case.

With `O=[N+]([O-])c1cccnc1S(=O)(=O)c1ccccc1`, the TGI came out at 23.9 µM in assay [1]; 39.6 µM in assay [2]; 11.4 µM in assay [3]; 34.7 µM in assay [4]; 32.6 µM in assay [5]; 3.77 µM in assay [6]. In addition, the TGI in [7] came out at 2.82 µM; in assay [8] it was 14 µM; in [9], 30.3 µM; in assay [10], 23.5 µM.

With `COc1cccc(-c2cc(=O)c3cc(N4CCN(C)CC4)ccc3[nH]2)c1`, the GI50 is 1.46 µM in [1]; 1.15 µM in assay [2]; 3.74 µM in assay [3]; 2.83 µM in assay [4]; 0.766 µM in [5]; 0.238 µM in [6]. The GI50 in assay [7] is 1.02 µM; in assay [9], 3.45 µM; in [10], 4.68 µM. Moreover, the TGI in assay [1] is > 100 µM; in [2] it was 4.71 µM and 3.88 µM; in assay [3], > 100 µM; in [6], 5.77 µM and 0.976 µM; in assay [7], 4.28 µM and 3.79 µM; in [8] it was > 100 µM. The TGI in [10] is > 100 µM.

With `CC(=O)C1(C(=O)C(=[N+]=[N-])S(=O)(=O)c2ccccc2)CC1`, the TGI in [1], in [2], in assay [3], in assay [4], in assay [5] and in assay [6] was > 100 µM in each case. For the same compound, the TGI in [7], in [8], in assay [9] and in [10] was > 100 µM in each case.

On to `C/C(=N\NC(=S)N1CCC1)c1ccccn1`, for which the TGI is 7.36 µM in assay [1]; 26.8 µM in assay [2]; 34.6 µM in [3]; 3.48 µM in assay [4]; 2.01 µM in assay [5]; 4.39 µM in [6]. The TGI in assay [7] was > 45.9 µM; in assay [8] it was 15.3 µM; in [9], 39.7 µM; in [10] it was > 100 µM. Further, the GI50 in assay [2] is 0.0113 µM; in [3], 0.00656 µM; in assay [4], 0.0117 µM; in assay [5], 0.00994 µM; in assay [7], 0.00976 µM; in [8] it was 0.0188 µM. Besides, the GI50 in [9] is 0.00622 µM; in [10], 0.0289 µM.

As to `CN(C)CCNC(=O)Nc1ccc(N(C)c2ccnc(Nc3ccc(CS(C)(=O)=O)cc3)n2)cc1`, the GI50 in assay [1] is > 25 µM; in [2], > 25 µM; in assay [3], > 25 µM; in assay [4] it was > 23.7 µM; in [5], > 25 µM; in assay [6], > 25 µM. For the same compound, the GI50 in assay [7] was > 16.9 µM; in [8], > 25 µM; in assay [9] it was > 25 µM; in [10], > 25 µM. For the same compound, the TGI in [1], in assay [2], in [3], in assay [4], in assay [5] and in assay [6] was > 25 µM throughout. Besides, the TGI in assay [7], in assay [8], in [9] and in [10] was > 25 µM in each case.

For `OCC1OC(OC2(CO)OC(CO)C(O)C2O)C(O)C(O)C1O` (centres undefined), the GI50 in assay [1], in assay [2], in assay [3], in assay [4], in [5] and in assay [6] was > 100 µM throughout. Moreover, the GI50 in assay [7], in [8], in [9] and in [10] was > 100 µM each time. Further, the TGI in assay [1], in [2], in assay [3], in assay [4], in assay [5] and in assay [6] was > 100 µM throughout. Further, the TGI in assay [7], in [8], in [9] and in [10] was > 100 µM in each case.

Consider `Cc1ccc(-n2c3nc(=O)n(C)c(=O)c-3nc3ccccc32)c(C)c1`, for which the TGI in assay [1] is 5.49 µM; in assay [2], 19 µM; in assay [3] it was 15.8 µM; in assay [4] it was 30.7 µM; in assay [5] it was 18.5 µM; in assay [6] it was 34.5 µM. In addition, the TGI turned out to be 29 µM in [7], 52.5 µM in assay [8], 7.75 µM in [9] and 22.8 µM in [10].

In the case of `OCCNc1nc2ccccc2c2[nH]c3ccccc3c12`, the GI50 in assay [1] was 1.36 µM; in assay [2] it was 0.527 µM; in assay [3] it was 0.278 µM; in assay [4] it was 0.839 µM; in assay [5], 0.979 µM; in [6], 0.146 µM. The GI50 in assay [7] was 0.36 µM; in assay [8], 0.297 µM; in [9] it was 0.496 µM; in assay [10] it was 0.34 µM. Also, the TGI in assay [1] amounted to 6.52 µM; in assay [2], 1.71 µM; in assay [3] it was 2.67 µM; in assay [4], 4.79 µM; in [5], 2.54 µM; in assay [6], 0.646 µM. Further, the TGI in [7] stood at 1.73 µM; in assay [8], 1.37 µM; in assay [9], 1.88 µM; in [10], 11.4 µM.
